18 compounds from patent US11173151B2, “Substituted triazole derivatives and uses thereof” (BAYER AKTIENGESELLSCHAFT, priority 2017, dated 2021) can be followed below.

One may read the IC50 as the concentration that inhibits the measured activity by half.

One test deals with T1, human V1a receptor (Homo sapiens, UniProt P37288).
T1 construct: expressed in transfected cells; host or cells: CHO K1 (ATCC), also stably transfected with a modified aequorin
The test is described as follows: Cellular in vitro assay for determining vasopressin receptor activity, V1a receptor cell line (CHO, aequorin luminescence). In kind it is cell-based. As to conditions: for IC50: CHO cell line transfected with human V1a receptor, [Arg]-vasopressin at EC50 concentration, read-out: IC50 hV1a; for ratio IC50 hV2/hV1a: selectivity ratio IC50 hV2 / IC50 hV1a. The method in brief: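 CHO K1/aequorin cells, coelenterazine 5 μg/ml o/n; cpd 10 min; [Arg]-vasopressin at EC50; luminescence read immediately; IC50.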

For another test, the target named is T2, human V2 receptor (Homo sapiens, UniProt P30518).
T2 construct: expressed in transfected cells; host or cells: CHO K1 (ATCC) expressing firefly luciferase under a CRE-responsive promoter
The test is described as follows: Cellular in vitro assay for determining vasopressin receptor activity, V2 receptor cell line (CHO, CRE-luciferase). In kind it is cell-based. As to conditions: CHO cell line transfected with human V2 receptor; [Arg8]-vasopressin at EC50 concentration, 3 hours; read-out: IC50 hV2.

T2 sequence (P30518 whole entry): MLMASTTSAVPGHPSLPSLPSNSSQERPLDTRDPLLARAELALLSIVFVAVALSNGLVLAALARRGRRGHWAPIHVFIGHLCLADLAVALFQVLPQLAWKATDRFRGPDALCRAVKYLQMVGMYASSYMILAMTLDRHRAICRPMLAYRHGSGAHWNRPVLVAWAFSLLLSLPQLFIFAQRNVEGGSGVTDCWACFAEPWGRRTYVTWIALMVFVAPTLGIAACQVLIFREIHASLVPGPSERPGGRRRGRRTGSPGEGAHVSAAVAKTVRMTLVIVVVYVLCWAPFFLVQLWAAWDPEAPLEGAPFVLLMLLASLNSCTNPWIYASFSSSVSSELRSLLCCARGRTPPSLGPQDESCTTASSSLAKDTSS
T1 sequence (P37288 whole entry): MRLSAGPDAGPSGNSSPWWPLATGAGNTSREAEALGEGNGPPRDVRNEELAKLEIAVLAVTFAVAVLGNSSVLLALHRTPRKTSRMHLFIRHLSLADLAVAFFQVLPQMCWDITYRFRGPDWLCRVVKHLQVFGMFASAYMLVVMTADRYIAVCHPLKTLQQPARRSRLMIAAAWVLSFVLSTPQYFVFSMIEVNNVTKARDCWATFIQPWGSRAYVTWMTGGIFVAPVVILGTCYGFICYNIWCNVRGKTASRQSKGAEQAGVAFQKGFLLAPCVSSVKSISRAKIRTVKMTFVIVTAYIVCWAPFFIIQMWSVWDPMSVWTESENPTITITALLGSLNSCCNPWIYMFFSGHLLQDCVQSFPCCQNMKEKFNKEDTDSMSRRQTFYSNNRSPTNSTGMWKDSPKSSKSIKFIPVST

As for `O=C(Nc1cccc(O)c1)c1ccccc1-n1cnc(Cn2nc(-c3ccc(Cl)cc3)n(C[C@H](O)C(F)(F)F)c2=O)n1` [Example 227, 2-[3-({3-(4-Chlorophenyl)-5-oxo-4-[(2S)-3,3,3-trifluoro-2-hydroxypropyl]-4,5-dihydro-1H-1,2,4-triazol-1-yl}methyl)-1H-1,2,4-triazol-1-yl]-N-(3-hydroxyphenyl)benzamide], on human V1a receptor, the IC50 was found to be 0.00121 µM and the “ratio IC50 hV2/hV1a” value was 55.8. Moreover, the IC50 on human V2 receptor is 0.0675 µM.

Take `Cc1cc(NC(=O)c2ccccc2-n2cnc(Cn3nc(-c4ccc(Cl)cc4)n(C[C@H](O)C(F)(F)F)c3=O)n2)ccc1F` [Example 228, 2-[3-({3-(4-Chlorophenyl)-5-oxo-4-[(2S)-3,3,3-trifluoro-2-hydroxypropyl]-4,5-dihydro-1H-1,2,4-triazol-1-yl}methyl)-1H-1,2,4-triazol-1-yl]-N-(4-fluoro-3-methylphenyl)benzamide]: at human V1a receptor, the IC50 is 0.00565 µM and the “ratio IC50 hV2/hV1a” value is on record as 26.5. Besides, the half-maximal inhibitory concentration (IC50) at human V2 receptor is 0.15 µM.

`Cc1ccc(F)cc1NC(=O)c1ccccc1-n1cnc(Cn2nc(-c3ccc(Cl)cc3)n(C[C@H](O)C(F)(F)F)c2=O)n1` [Example 229, 2-[3-({3-(4-Chlorophenyl)-5-oxo-4-[(2S)-3,3,3-trifluoro-2-hydroxypropyl]-4,5-dihydro-1H-1,2,4-triazol-1-yl}methyl)-1H-1,2,4-triazol-1-yl]-N-(5-fluoro-2-methylphenyl)benzamide]: the concentration for half-maximal inhibition (IC50) on human V1a receptor turned out to be 0.00235 µM; on human V2 receptor, 0.0495 µM. Moreover, at human V1a receptor, the “ratio IC50 hV2/hV1a” value is listed as 21.1.

For `Cc1ccnc(NC(=O)c2ccccc2-n2cnc(Cn3nc(-c4ccc(Cl)cc4)n(C[C@H](O)C(F)(F)F)c3=O)n2)c1` [Example 230, 2-[3-({3-(4-Chlorophenyl)-5-oxo-4-[(2S)-3,3,3-trifluoro-2-hydroxypropyl]-4,5-dihydro-1H-1,2,4-triazol-1-yl}methyl)-1H-1,2,4-triazol-1-yl]-N-(4-methylpyridin-2-yl)benzamide], the half-inhibitory concentration (IC50) at human V1a receptor is 0.0085 µM; on human V2 receptor it was 0.0565 µM. Also, the “ratio IC50 hV2/hV1a” value at human V1a receptor came out at 6.6.

Consider `CONC(=O)c1ccccc1-n1cnc(Cn2nc(-c3ccc(Cl)cc3)n(C[C@H](O)C(F)(F)F)c2=O)n1` [Example 232, 2-[3-({3-(4-Chlorophenyl)-5-oxo-4-[(2S)-3,3,3-trifluoro-2-hydroxypropyl]-4,5-dihydro-1H-1,2,4-triazol-1-yl}methyl)-1H-1,2,4-triazol-1-yl]-N-methoxybenzamide], for which, on human V1a receptor, the half-inhibitory concentration (IC50) is 0.0022 µM and the “ratio IC50 hV2/hV1a” value worked out at 243.2. Moreover, the concentration for half-maximal inhibition (IC50) on human V2 receptor was determined as 0.535 µM.

Regarding `N[C@H]1CCCC[C@@H]1NC(=O)c1ccccc1-n1cnc(Cn2nc(-c3ccc(Cl)cc3)n(C[C@H](O)C(F)(F)F)c2=O)n1` [Example 233, N-[(1S,2S)-2-Aminocyclohexyl]-2-[3-({3-(4-chlorophenyl)-5-oxo-4-[(2S)-3,3,3-trifluoro-2-hydroxypropyl]-4,5-dihydro-1H-1,2,4-triazol-1-yl}methyl)-1H-1,2,4-triazol-1-yl]benzamide], the values for the IC50 at human V1a receptor and at human V2 receptor were 0.0144 µM and 6.7 µM, respectively. Also, the “ratio IC50 hV2/hV1a” value on human V1a receptor is on record as 463.7.

Regarding `N[C@@H]1CCCC[C@@H]1NC(=O)c1ccccc1-n1cnc(Cn2nc(-c3ccc(Cl)cc3)n(C[C@H](O)C(F)(F)F)c2=O)n1` [Example 234, N-[(1S,2R)-2-Aminocyclohexyl]-2-[3-({3-(4-chlorophenyl)-5-oxo-4-[(2S)-3,3,3-trifluoro-2-hydroxypropyl]-4,5-dihydro-1H-1,2,4-triazol-1-yl}methyl)-1H-1,2,4-triazol-1-yl]benzamide], the concentration for half-maximal inhibition (IC50) at human V1a receptor was found to be 0.00695 µM; at human V2 receptor, 2.9 µM. For the same compound, the “ratio IC50 hV2/hV1a” value at human V1a receptor was determined as 417.3.

Consider `O=C(NCc1ccc(F)cc1)c1ccccc1-n1cnc(Cn2nc(-c3ccc(Cl)cc3)n(C[C@H](O)C(F)(F)F)c2=O)n1` [Example 235, 2-[3-({3-(4-Chlorophenyl)-5-oxo-4-[(2S)-3,3,3-trifluoro-2-hydroxypropyl]-4,5-dihydro-1H-1,2,4-triazol-1-yl}methyl)-1H-1,2,4-triazol-1-yl]-N-(4-fluorobenzyl)benzamide], for which, at human V1a receptor, the IC50 came to 0.0087 µM and the “ratio IC50 hV2/hV1a” value amounted to 40.8. The IC50 on human V2 receptor was determined as 0.355 µM.

As for `O=C(NCc1cccc(F)c1)c1ccccc1-n1cnc(Cn2nc(-c3ccc(Cl)cc3)n(C[C@H](O)C(F)(F)F)c2=O)n1` [Example 236, 2-[3-({3-(4-Chlorophenyl)-5-oxo-4-[(2S)-3,3,3-trifluoro-2-hydroxypropyl]-4,5-dihydro-1H-1,2,4-triazol-1-yl}methyl)-1H-1,2,4-triazol-1-yl]-N-(3-fluorobenzyl)benzamide], on human V1a receptor, the IC50 came out at 0.00705 µM and the “ratio IC50 hV2/hV1a” value was 48.2. Moreover, the concentration for half-maximal inhibition (IC50) on human V2 receptor was found to be 0.34 µM.

In the case of `C[C@H](NC(=O)c1ccccc1-n1cnc(Cn2nc(-c3ccc(Cl)cc3)n(C[C@H](O)C(F)(F)F)c2=O)n1)C(N)=O` [Example 237, N-[(2S)-1-Amino-1-oxopropan-2-yl]-2-[3-({3-(4-chlorophenyl)-5-oxo-4-[(2S)-3,3,3-trifluoro-2-hydroxypropyl]-4,5-dihydro-1H-1,2,4-triazol-1-yl}methyl)-1H-1,2,4-triazol-1-yl]benzamide], the results for the half-maximal inhibitory concentration (IC50) on human V1a receptor and on human V2 receptor were 0.0155 µM and 0.445 µM, respectively. At human V1a receptor, the “ratio IC50 hV2/hV1a” value was 28.7.

As to `Cc1nnc(NC(=O)c2ccccc2-n2cnc(Cn3nc(-c4ccc(Cl)cc4)n(C[C@H](O)C(F)(F)F)c3=O)n2)s1` [Example 238, 2-[3-({3-(4-Chlorophenyl)-5-oxo-4-[(2S)-3,3,3-trifluoro-2-hydroxypropyl]-4,5-dihydro-1H-1,2,4-triazol-1-yl}methyl)-1H-1,2,4-triazol-1-yl]-N-(5-methyl-1,3,4-thiadiazol-2-yl)benzamide], at human V1a receptor, the IC50 was 0.0135 µM and the “ratio IC50 hV2/hV1a” value amounted to 3.3. In addition, on human V2 receptor, the IC50 turned out to be 0.0445 µM.

On to `O=C(NCc1ccc(F)c(F)c1)c1ccccc1-n1cnc(Cn2nc(-c3ccc(Cl)cc3)n(C[C@H](O)C(F)(F)F)c2=O)n1` [Example 239, 2-[3-({3-(4-Chlorophenyl)-5-oxo-4-[(2S)-3,3,3-trifluoro-2-hydroxypropyl]-4,5-dihydro-1H-1,2,4-triazol-1-yl}methyl)-1H-1,2,4-triazol-1-yl]-N-(3,4-difluorobenzyl)benzamide], for which, on human V1a receptor, the IC50 came out at 0.00735 µM and the “ratio IC50 hV2/hV1a” value was 32.7. For the same compound, the IC50 at human V2 receptor was 0.24 µM.

`Cc1ccnc(NC(=O)c2ccccc2-n2cnc(Cn3nc(-c4ccc(Cl)cc4)n(C[C@H](O)C(F)(F)F)c3=O)n2)n1` [Example 240, 2-[3-({3-(4-Chlorophenyl)-5-oxo-4-[(2S)-3,3,3-trifluoro-2-hydroxypropyl]-4,5-dihydro-1H-1,2,4-triazol-1-yl}methyl)-1H-1,2,4-triazol-1-yl]-N-(4-methylpyrimidin-2-yl)benzamide]: on human V1a receptor, the IC50 was found to be 0.0125 µM and the “ratio IC50 hV2/hV1a” value was determined as 24.0. Moreover, the IC50 at human V2 receptor stood at 0.3 µM.

In the case of `O=C(NCCF)c1ccccc1-n1cnc(Cn2nc(-c3ccc(Cl)cc3)n(C[C@H](O)C(F)(F)F)c2=O)n1` [Example 241, 2-[3-({3-(4-Chlorophenyl)-5-oxo-4-[(2S)-3,3,3-trifluoro-2-hydroxypropyl]-4,5-dihydro-1H-1,2,4-triazol-1-yl}methyl)-1H-1,2,4-triazol-1-yl]-N-(2-fluoroethyl)benzamide], on human V1a receptor, the IC50 came to 0.0022 µM and the “ratio IC50 hV2/hV1a” value is reported as 33.4. Further, on human V2 receptor, the 50% inhibitory concentration (IC50) worked out at 0.0735 µM.

Regarding `O=C(NCc1c(F)cccc1F)c1ccccc1-n1cnc(Cn2nc(-c3ccc(Cl)cc3)n(C[C@H](O)C(F)(F)F)c2=O)n1` [Example 242, 2-[3-({3-(4-Chlorophenyl)-5-oxo-4-[(2S)-3,3,3-trifluoro-2-hydroxypropyl]-4,5-dihydro-1H-1,2,4-triazol-1-yl}methyl)-1H-1,2,4-triazol-1-yl]-N-(2,6-difluorobenzyl)benzamide], on human V1a receptor, the IC50 amounted to 0.0057 µM and the “ratio IC50 hV2/hV1a” value is 22.2. The 50% inhibitory concentration (IC50) on human V2 receptor was 0.127 µM.

For `O=C(NCc1cc(F)cc(F)c1)c1ccccc1-n1cnc(Cn2nc(-c3ccc(Cl)cc3)n(C[C@H](O)C(F)(F)F)c2=O)n1` [Example 243, 2-[3-({3-(4-Chlorophenyl)-5-oxo-4-[(2S)-3,3,3-trifluoro-2-hydroxypropyl]-4,5-dihydro-1H-1,2,4-triazol-1-yl}methyl)-1H-1,2,4-triazol-1-yl]-N-(3,5-difluorobenzyl)benzamide], the figures for the half-maximal inhibitory concentration (IC50) on human V1a receptor and on human V2 receptor were 0.0225 µM and 0.54 µM, respectively. On human V1a receptor, the “ratio IC50 hV2/hV1a” value is 24.0.

In the case of `Cc1noc(NC(=O)c2ccccc2-n2cnc(Cn3nc(-c4ccc(Cl)cc4)n(C[C@H](O)C(F)(F)F)c3=O)n2)c1C` [Example 244, 2-[3-({3-(4-Chlorophenyl)-5-oxo-4-[(2S)-3,3,3-trifluoro-2-hydroxypropyl]-4,5-dihydro-1H-1,2,4-triazol-1-yl}methyl)-1H-1,2,4-triazol-1-yl]-N-(3,4-dimethyl-1,2-oxazol-5-yl)benzamide], the figures for the concentration for half-maximal inhibition (IC50) on human V1a receptor and on human V2 receptor were 0.0073 µM and 0.23 µM, respectively. Further, the “ratio IC50 hV2/hV1a” value on human V1a receptor stood at 31.5.

Regarding `CC(C)=CCNC(=O)c1ccccc1-n1cnc(Cn2nc(-c3ccc(Cl)cc3)n(C[C@H](O)C(F)(F)F)c2=O)n1` [Example 245, 2-[3-({3-(4-Chlorophenyl)-5-oxo-4-[(2S)-3,3,3-trifluoro-2-hydroxypropyl]-4,5-dihydro-1H-1,2,4-triazol-1-yl}methyl)-1H-1,2,4-triazol-1-yl]-N-(3-methylbut-2-en-1-yl)benzamide], at human V1a receptor, the IC50 amounted to 0.00645 µM and the “ratio IC50 hV2/hV1a” value turned out to be 125.6. In addition, on human V2 receptor, the half-maximal inhibitory concentration (IC50) was 0.81 µM.
